Experimental data taken from patent US8334316B2, “Substituted organosulfur compounds and methods of using thereof” (ACEA Biosciences, Inc., priority 2004, dated 2012).

System: A549 human lung cancer cells
Experiment: Cell-cycle distribution by propidium iodide flow cytometry in A549 cells
Type: cell-based
Details: 24 hrs, vs DMSO
Experimental: Another in vitro assay may be used to evaluate the effect of compounds in arresting the cell cycle progression. More specifically, a test compound is added to cells of certain cell lines in a concentration-dependent manner. After cells are incubated for certain specific length of time, cells are stained using propidium iodide and are used for flow cytometric assessment. The cell populations of sub-G0/G1, G0/G1, S and G2/M phases are determined. All above in vitro assays are cell-based, single-time point (or multiple-time points using multiple plates) end-point assays.
Microtubules are extremely important in the process of mitosis, during which the duplicated chromosomes of a cell are separated into two identical sets before cleavage of the cell into two daughter cells. […] As consequence, cells will be arrested at G2/M phase.
In briefly, A549 cells were seeded at a density of 500,000 cells in 60 mm tissue culture dishes. Approximately 18 hours later the cells were treated with the indicated concentrations of anti-mitotic compounds and allowed to further incubate for 24 hours. The cells were washed in PBS, trypsinized, counted and fixed in ice-cold 70% methanol and stored at 4° C. The cells were washed with PBS, stained with propidium iodide and kept on ice until flow cytometry analysis.

Row | Compound | Cell population at G2/M phase (25 uM) | Cell population at G2/M phase (7.8 nM)
1 | Fc1ccc(CSSSCc2ccc(F)cc2)cc1 [ACEA100108, Di(p-fluorobenzyl)trisulfide] | increased significantly | 
2 | CC(=O)O[C@H]1C(=O)[C@@]2(C)[C@H]([C@H](OC(=O)c3ccccc3)[C@]3(O)C[C@H](OC(=O)[C@H](O)[C@@H](NC(=O)c4ccccc4)c4ccccc4)C(C)=C1C3(C)C)[C@]1(OC(C)=O)CO[C@@H]1C[C@@H]2O [Taxol, paclitaxel, reference compound] |  | increased significantly
